Reference: paper PMC9270327 (Communications Biology, 2022)
Values joined by “and” are separate entries in the source; they are usually repeats but may differ in a detail not shown here. Equal entries are not always repeated. Structures can show the parent of a compound that is named as a salt. Where two headings read alike, the source gives them in different places.

How the values were obtained:
[1] = target: T1, recombinant human thrombin (Homo sapiens, UniProt P00734); experiment: Enzyme inhibition assay with purified thrombin (Ki, dose-response); format: biochemical; settings: normalized
T1 construct: purchased R&D Systems (Minneapolis, MN, USA)
Text: (§1) Recombinant human TMPRSS2 was purchased from Creative BioMart (New York, USA) or LSBio (Seattle, USA), factor Xa was obtained from Bio-Techne GmbH (Wiesbaden, Germany). Recombinant human thrombin and matriptase protein were purchased from R&D Systems (Minneapolis, MN, USA).

factor Xa = target: T2, factor Xa (Homo sapiens, UniProt P00742); experiment: Enzyme inhibition assay with purified factor Xa (Ki, dose-response); format: biochemical; settings: for factor Xa activity, Mean (Fig. 2d): normalized
T2 construct: purchased Bio-Techne GmbH (Wiesbaden, Germany)
T2 sequence (P00742 235-488 limits assumed): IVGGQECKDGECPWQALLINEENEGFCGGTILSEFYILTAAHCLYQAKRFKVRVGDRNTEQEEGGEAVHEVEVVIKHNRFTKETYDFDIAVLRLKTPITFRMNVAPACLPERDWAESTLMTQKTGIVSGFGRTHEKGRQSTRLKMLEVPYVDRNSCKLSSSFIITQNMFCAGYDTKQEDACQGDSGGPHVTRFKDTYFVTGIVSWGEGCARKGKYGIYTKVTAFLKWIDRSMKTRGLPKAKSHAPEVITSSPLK
T2 sequence (P00742 41-179 partner limits assumed): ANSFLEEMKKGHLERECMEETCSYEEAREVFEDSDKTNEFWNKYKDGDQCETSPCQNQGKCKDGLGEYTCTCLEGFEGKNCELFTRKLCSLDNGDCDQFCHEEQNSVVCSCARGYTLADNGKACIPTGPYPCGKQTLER
Text: as §1

[2] = test system: lentiviral pseudoparticles carrying SARS-CoV-2 Beta (B.1.351) spike, Caco-2 cells; format: cell-based; settings: for SARS-CoV-2 spike driven entry, Mean (0 nM = 100): Fig. 5c
[3] = test system: lentiviral pseudoparticles carrying SARS-CoV-2 Omicron BA.1 (B.1.1.529) spike, Caco-2 cells; format: cell-based
[4] = test system: SARS-CoV-2 Alpha (B.1.1.7), Caco-2 cells; format: cell-based
TMPRSS2 = TMPRSS2 (Homo sapiens, UniProt O15393); experiment: Plasma stability: residual TMPRSS2 inhibition after incubation in human plasma
Sequence of TMPRSS2 (O15393 whole entry): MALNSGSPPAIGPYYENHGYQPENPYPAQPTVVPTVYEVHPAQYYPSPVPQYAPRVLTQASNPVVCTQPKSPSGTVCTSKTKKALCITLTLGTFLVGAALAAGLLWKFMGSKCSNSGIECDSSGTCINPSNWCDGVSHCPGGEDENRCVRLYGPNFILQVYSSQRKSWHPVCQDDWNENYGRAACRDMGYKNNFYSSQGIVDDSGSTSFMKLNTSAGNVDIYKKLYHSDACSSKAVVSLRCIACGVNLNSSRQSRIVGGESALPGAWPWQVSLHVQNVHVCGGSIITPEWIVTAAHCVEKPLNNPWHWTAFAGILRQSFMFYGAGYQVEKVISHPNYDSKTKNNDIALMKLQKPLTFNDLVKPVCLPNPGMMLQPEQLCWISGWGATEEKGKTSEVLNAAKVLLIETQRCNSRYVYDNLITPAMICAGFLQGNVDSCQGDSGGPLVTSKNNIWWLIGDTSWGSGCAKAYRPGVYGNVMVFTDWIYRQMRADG
Procedure: The activity of the compounds against the recombinant human enzymes was determined in enzyme inhibition assays. […] The measurements were performed on a Tecan infinite® M1000 and the fluorescence intensity was measured by exciting the AMC fluorophore at 380 nm wavelength and recording emission at 460 nm wavelength. […] Fluorescence intensities and absorption were measured every 2 min for 2 h or as endpoint after 2 h. […] To determine the IC50 values, the concentration-response data were plotted with the program GraphPad prism version 8.4.2 (San Diego, California) and a nonlinear regression fit with the equation [Inhibitor] vs. normalized response was applied. The inhibitory constant Ki was calculated from the IC50 values using the Cheng–Prusoff equation (Ki = IC50/[S]/KM) for competitive reversible inhibitors[66].
The stability of the inhibitors was measured according to a modified procedure from ref. [67]. […] At indicated timepoints, 100 µL samples were taken and mixed with 200 µL of ethanol to precipitate proteins. […] The supernatant was aspirated and analyzed using analytical HPLC. The residual inhibitory constants Ki after incubation was assessed by mixing serial dilutions of the inhibitor with recombinant TMPRSS2 as described above.
Shown are the means ± SD of n=1 experiment performed in triplicates.

CN(C)C(=O)COC(=O)Cc1ccc(OC(=O)c2ccc(NC(=N)N)cc2)cc1 [CM, camostat mesylate, reference compound]
thrombin activity, Mean (Fig. 2c) ([1]; 0.01 nM): 98.2939
thrombin activity, Mean (Fig. 2c) ([1]; 0.02 nM, 0 nM = 100): 99.8688
thrombin activity, Mean (Fig. 2c) ([1]; 0.04 nM, 0 nM = 100): 100.525
thrombin activity, Mean (Fig. 2c) ([1]; 0.2 nM, 0 nM = 100): 103.675
thrombin activity, Mean (Fig. 2c) ([1]; 2 nM, 0 nM = 100): 103.806
thrombin activity, Mean (Fig. 2c) ([1]; 20 nM, 0 nM = 100): 105.906
thrombin activity, Mean (Fig. 2c) ([1]; 10000 nM, 0 nM = 100): 73.8845
thrombin activity, Mean (Fig. 2c) ([1]; 100000 nM, 0 nM = 100): 23.2283
factor Xa activity, Mean (Fig. 2d) (factor Xa; 0.04 nM, 0 nM = 100): 85.6127
factor Xa activity, Mean (Fig. 2d) (factor Xa; 0.2 nM, 0 nM = 100): 89.6222
factor Xa activity, Mean (Fig. 2d) (factor Xa; 2 nM, 0 nM = 100): 92.4525
factor Xa activity, Mean (Fig. 2d) (factor Xa; 20 nM, 0 nM = 100): 96.9338
factor Xa activity, Mean (Fig. 2d) (factor Xa; 200 nM, 0 nM = 100): 78.0652
factor Xa activity, Mean (Fig. 2d) (factor Xa; 1000 nM): 72.1688
factor Xa activity, Mean (Fig. 2d) (factor Xa; 10000 nM, 0 nM = 100): 33.4905
factor Xa activity, Mean (Fig. 2d) (factor Xa; 100000 nM, 0 nM = 100): 14.8585
Ki (factor Xa; 30 min preincubation, substrate Bz-Ile-Glu-Gly-Arg-pNA): 1790 nM
IC50 ([2]; Caco-2 cells, luciferase 2 days post transduction, read-out: IC50 pseudotyped lentivirus Beta): 156 nM
SARS-CoV-2 spike driven entry, Mean (0 nM = 100) ([2]; compound 3.2 nM): 69.473
SARS-CoV-2 spike driven entry, Mean (0 nM = 100) ([2]; compound 16 nM): 73.209
SARS-CoV-2 spike driven entry, Mean (0 nM = 100) ([2]; compound 80 nM): 64.2815
SARS-CoV-2 spike driven entry, Mean (0 nM = 100) ([2]; compound 400 nM): 45.014
SARS-CoV-2 spike driven entry, Mean (0 nM = 100) ([2]; compound 2000 nM): 20.732
SARS-CoV-2 spike driven entry, Mean (0 nM = 100) ([2]; compound 10000 nM): 4.9565
SARS-CoV-2 spike driven entry, Mean (0 nM = 100) ([2]; compound 50000 nM): 3.2315
SARS-CoV-2 spike driven entry, Mean (0 nM = 100) [3]: 47.6902 and 69.3145 and 95.2747
IC50 ([3]; Caco-2 cells, luciferase 2 days post transduction, read-out: IC50 pseudotyped lentivirus Omicron BA.1): 77.6 nM
SARS-CoV-2 spike driven entry, Mean (0 nM = 100) ([3]; Fig. 5e, compound 400 nM, […]): 26.7078
SARS-CoV-2 spike driven entry, Mean (0 nM = 100) ([3]; Fig. 5e, compound 2000 nM, […]): 11.5722
SARS-CoV-2 spike driven entry, Mean (0 nM = 100) ([3]; Fig. 5e, compound 10000 nM, […]): 6.102
SARS-CoV-2 spike driven entry, Mean (0 nM = 100) ([3]; Fig. 5e, compound 50000 nM, […]): 4.574
IC50 ([4]; read-out: IC50 SARS-CoV-2 Alpha): 16400 nM
IC50 ([4]; read-out: IC50 SARS-CoV-2 Alpha (text)): 16400 nM
TMPRSS2 activity, Mean (0 nM = 100) (TMPRSS2; inhibitor 0.0167 nM, 0 min in plasma): 112.439
TMPRSS2 activity, Mean (0 nM = 100) (TMPRSS2; inhibitor 0.0167 nM, 30 min in plasma): 99.4869
TMPRSS2 activity, Mean (0 nM = 100) (TMPRSS2; inhibitor 0.0167 nM, 60 min in plasma): 94.1158
TMPRSS2 activity, Mean (0 nM = 100) (TMPRSS2; inhibitor 0.0167 nM, 120 min in plasma): 100.839
TMPRSS2 activity, Mean (0 nM = 100) (TMPRSS2; inhibitor 0.0167 nM, 24 h in plasma): 102.049
TMPRSS2 activity, Mean (0 nM = 100) (TMPRSS2; inhibitor 0.0167 nM, 10 d in plasma): 98.7798
TMPRSS2 activity, Mean (0 nM = 100) (TMPRSS2; inhibitor 0.0167 nM, positive ctrl): 95.8208
TMPRSS2 activity, Mean (0 nM = 100) (TMPRSS2; inhibitor 0.167 nM, 0 min in plasma): 118.068
TMPRSS2 activity, Mean (0 nM = 100) (TMPRSS2; inhibitor 0.167 nM, 30 min in plasma): 99.3363
TMPRSS2 activity, Mean (0 nM = 100) (TMPRSS2; inhibitor 0.167 nM, 60 min in plasma): 90.9592
TMPRSS2 activity, Mean (0 nM = 100) (TMPRSS2; inhibitor 0.167 nM, 120 min in plasma): 99.9584
TMPRSS2 activity, Mean (0 nM = 100) (TMPRSS2; inhibitor 0.167 nM, 24 h in plasma): 103.994
TMPRSS2 activity, Mean (0 nM = 100) (TMPRSS2; inhibitor 0.167 nM, 10 d in plasma): 99.2067
TMPRSS2 activity, Mean (0 nM = 100) (TMPRSS2; inhibitor 0.167 nM, positive ctrl): 72.6812
TMPRSS2 activity, Mean (0 nM = 100) (TMPRSS2; inhibitor 1.665 nM, 0 min in plasma): 103.981
TMPRSS2 activity, Mean (0 nM = 100) (TMPRSS2; inhibitor 1.665 nM, 30 min in plasma): 95.5323
TMPRSS2 activity, Mean (0 nM = 100) (TMPRSS2; inhibitor 1.665 nM, 60 min in plasma): 85.541
TMPRSS2 activity, Mean (0 nM = 100) (TMPRSS2; inhibitor 1.665 nM, 120 min in plasma): 96.8319
TMPRSS2 activity, Mean (0 nM = 100) (TMPRSS2; inhibitor 1.665 nM, 24 h in plasma): 101.166
TMPRSS2 activity, Mean (0 nM = 100) (TMPRSS2; inhibitor 1.665 nM, 10 d in plasma): 96.8623
TMPRSS2 activity, Mean (0 nM = 100) (TMPRSS2; inhibitor 1.665 nM, positive ctrl): 21.364
TMPRSS2 activity, Mean (0 nM = 100) (TMPRSS2; inhibitor 16.65 nM, 0 min in plasma): 71.7511
TMPRSS2 activity, Mean (0 nM = 100) (TMPRSS2; inhibitor 16.65 nM, 30 min in plasma): 65.1615
TMPRSS2 activity, Mean (0 nM = 100) (TMPRSS2; inhibitor 16.65 nM, 60 min in plasma): 67.6129
TMPRSS2 activity, Mean (0 nM = 100) (TMPRSS2; inhibitor 16.65 nM, 120 min in plasma): 74.7383
